# Measured values from PMC10221469 (Viruses, 2023).
# pIC50: −log10 of the molar value.
# Tested on: SARS-CoV-2 pseudovirus (lentiviral vector, spike D614G)
# Format: cell-based
# Settings: read-out: IC50 pseudovirus entry (luciferase output)
row,Structure (SMILES),pIC50
1,C#CCC(Cc1cnc2nc(N)nc(N)c2n1)c1ccc(C(=O)N[C@@H](CCC(=O)O)C(=O)O)cc1 (some centres unmarked) [Pralatrexate],7.92
2,COc1cc(NCc2ccc3nc(N)nc(N)c3c2C)cc(OC)c1OC [Trimetrexate],6.65
